From paper PMC5339874, “Fluorene-9-bisphenol is anti-oestrogenic and may cause adverse pregnancy outcomes in mice” (Nature Communications, 2017)

Legend:
Format in all cases: in vivo
CD-1 mice = experiment: Global gene expression microarray of livers, ovaries and uteri
Method: The uteri, ovaries and livers were collected for total RNA isolation. Total RNA was isolated using Trizol reagent (Invitrogen) and further purified by NucleoSpin RNA Clean-up (Macherey-Nagel, Germany). Fluorescence labelling of the RNA samples was performed with a Jingxin cRNA linear amplification and labelling kit (CapitalBio) according to the manufacturer's instructions. The total RNA from each pool of tissue samples (a mixture from three animals) was used for microarray analysis. Cy3 dCTP was used to label the samples. The labelled products were added to SurePrint G3 mouse gene expression 8 × 60 K microarrays (Agilent) and incubated overnight at 42 °C. Following hybridization, the gene arrays were washed and scanned using an Agilent G2565CA Microarray Scanner. Glyceraldehyde 3-phosphate dehydrogenase (GAPDH) was used as an endogenous control to monitor the quality of the target preparation. The data were processed with feature extraction software (GeneSpring GX v.11; Agilent). The raw signals were log-transformed and normalized with the percentile shift normalization method. All arrays met the minimum Agilent QA/QC standards. To verify the data from the gene array, 14 genes were chosen as candidates for Q-RT-PCR. Primers are listed in Supplementary Table 4. GAPDH was used as an endogenous control. Amplification was performed using SYBR Green PCR master mix (Applied Biosystems) according to the manufacturer's instructions. The relative expression was quantified using the 2^(−ΔΔCt) method. The Gene Ontology (GO) and KEGG pathway enrichment analyses were performed with DAVID (refs [40], [41]).

female CD-1 mice = experiment: Exposure experiment through drinking water; conditions: 10-day exposure via drinking water; no statistically significant difference (P>0.05)
Method: Mice with a maximal difference in body weight of 1 g were selected for the experiments and randomly assigned to either the treatment or control groups. […] The animals were fed ad libitum an oestrogen-free diet from Trophic Animal Feed High-tech Co., Ltd. (Nantong, China), and drinking water was provided ad libitum in glass bottles. Before the experiments, the mice were randomly assigned to five groups (n=8). Ultra-pure water was used as a control. FULV was dissolved in ultra-pure water to a concentration of 100 ng l^−1 and used as a positive control. […] Two plastic drinking bottles labelled ‘BPA-free', of different brands, were purchased and denoted Bottle A and Bottle B. The plastic bottles were filled with boiling ultra-pure water from a stainless steel electric water heater and allowed to cool down to room temperature before the animal experiment. The BHPF levels in the cooled boiled waters from Bottle A, Bottle B and the stainless steel electric water heater were determined by GC–MS. No BHPF was detected in the cooled boiled water from the stainless steel electric water heater. The cooled boiled waters from Bottle A and Bottle B were transferred to glass bottles during the experiment. The exposure experiment was performed for 10 days beginning on PND 24. After the period of exposure, the mice were weighed and killed in turns for each group, whereby in each turn only one mouse in a group was killed. Blood was collected by cardiac puncture soon after each animal was killed, and the uteri were removed, blotted and weighed by one experimenter to reduce the risk of bias in the data collection and immediately frozen in liquid nitrogen for gene expression analysis. The relative uterine weight was calculated to evaluate the anti-uterotrophic activity. […] The serum BHPF levels were analysed by GC–MS using the same method as that for human serum. The gene expressions of sprr2a and sprr2b in the uteri were determined by Q-RT-PCR.

[1] = Serum BHPF levels in mice after drinking-water exposure (GC–MS); conditions: for concentration at 10 days: female, CD-1, mouse, serum, oral, 124.35 ng l^−1 in drinking water
Description: In China, college students usually undergo a physical examination before graduation. The volunteers in this study were senior students who were undergoing a physical examination in Beijing. Fifty male and 50 female healthy volunteers (mean age, 23.5±1.2 years) who habitually used plastic water bottles were randomly recruited to participate in this study in June 2015, after appropriate ethical approval was received from the Human Ethics Committee of the Peking University Peoples' Hospital. Each participant provided informed consent and volunteered to give one 10-ml random sample of blood. Fasting blood was collected at Peking University Hospital Medical Center with vacutainer blood collection device (Chengwu Yongkang Medical Products Ltd., China) between 8 and 9 h. […] The blood was collected directly into plain 10-ml glass vacutainer tubes and spun down 30 min later for serum preparation. The serum samples were stored in glass tubes at −80 °C until analysis. The samples were fortified with 5 ng of surrogate standard BHPF-d7, and the pH was adjusted to 6.5 with ammonium acetate. β-Glucuronidase/arylsulfatase (20 μl; Sigma-Aldrich, St Louis, MO) was added to the samples, and they were incubated at 37 °C for 20 h to allow deglucuronidation. […]
Mice with a maximal difference in body weight of 1 g were selected for the experiments and randomly assigned to either the treatment or control groups. […] The BHPF levels in the cooled boiled waters from Bottle A, Bottle B and the stainless steel electric water heater were determined by GC–MS. No BHPF was detected in the cooled boiled water from the stainless steel electric water heater. […] The relative uterine weight was calculated to evaluate the anti-uterotrophic activity. […] The serum BHPF levels were analysed by GC–MS using the same method as that for human serum. The gene expressions of sprr2a and sprr2b in the uteri were determined by Q-RT-PCR.

[2] = 50 mg/kg bw/d BHPF, 3 days, endogenous control
[3] = liver, 50 mg kg^−1 bw d^−1, 3 days
[4] = ovaries, 50 mg kg^−1 bw d^−1, 3 days
[5] = uteri, 50 mg kg^−1 bw d^−1, 3 days

Oc1ccc(C2(c3ccc(O)cc3)c3ccccc3-c3ccccc32)cc1 [BHPF, 9,9-bis(4-hydroxyphenyl)-fluorene]
genes involved in biotransformation and oxidation-reduction processes (CD-1 mice; 50 mg kg^−1 bw d^−1, 3 days): up-regulated in the uterus but not in the liver
Actb gene expression change, liver, Microarray (CD-1 mice; 50 mg/kg bw/d BHPF, 3 days): 1.09
Actb gene expression change, ovary, Microarray (CD-1 mice; 50 mg/kg bw/d BHPF, 3 days): 1.34
Actb gene expression change, uterus, Microarray (CD-1 mice; 50 mg/kg bw/d BHPF, 3 days): 1.07
Cfd gene expression change, liver, Microarray (CD-1 mice; 50 mg/kg bw/d BHPF, 3 days): -3.11
Cfd gene expression change, ovary, Microarray (CD-1 mice; 50 mg/kg bw/d BHPF, 3 days): 4.13
Cfd gene expression change, uterus, Microarray (CD-1 mice; 50 mg/kg bw/d BHPF, 3 days): -6.54
Orm1 gene expression change, liver, Microarray (CD-1 mice; 50 mg/kg bw/d BHPF, 3 days): -1.65
Orm1 gene expression change, ovary, Microarray (CD-1 mice; 50 mg/kg bw/d BHPF, 3 days): 1.18
Orm1 gene expression change, uterus, Microarray (CD-1 mice; 50 mg/kg bw/d BHPF, 3 days): 23.12
Spp1 gene expression change, liver, Microarray (CD-1 mice; 50 mg/kg bw/d BHPF, 3 days): -1.30
Spp1 gene expression change, ovary, Microarray (CD-1 mice; 50 mg/kg bw/d BHPF, 3 days): -1.67
Spp1 gene expression change, uterus, Microarray (CD-1 mice; 50 mg/kg bw/d BHPF, 3 days): 2.57
Sprr1a gene expression change, liver, Microarray (CD-1 mice; 50 mg/kg bw/d BHPF, 3 days): 2.17
Sprr1a gene expression change, ovary, Microarray (CD-1 mice; 50 mg/kg bw/d BHPF, 3 days): 1.17
Sprr1a gene expression change, uterus, Microarray (CD-1 mice; 50 mg/kg bw/d BHPF, 3 days): -3.44
Sprr2a2 gene expression change, liver, Microarray (CD-1 mice; 50 mg/kg bw/d BHPF, 3 days): 2.10
Sprr2a2 gene expression change, ovary, Microarray (CD-1 mice; 50 mg/kg bw/d BHPF, 3 days): -12.01
Sprr2a2 gene expression change, uterus, Microarray (CD-1 mice; 50 mg/kg bw/d BHPF, 3 days): -5.24
Sprr2b gene expression change, liver, Microarray (CD-1 mice; 50 mg/kg bw/d BHPF, 3 days): 2.75
Sprr2b gene expression change, ovary, Microarray (CD-1 mice; 50 mg/kg bw/d BHPF, 3 days): -2.07
Sprr2b gene expression change, uterus, Microarray (CD-1 mice; 50 mg/kg bw/d BHPF, 3 days): -13.20
Sprr2f gene expression change, liver, Microarray (CD-1 mice; 50 mg/kg bw/d BHPF, 3 days): 3.69
Sprr2f gene expression change, ovary, Microarray (CD-1 mice; 50 mg/kg bw/d BHPF, 3 days): -5.81
Sprr2f gene expression change, uterus, Microarray (CD-1 mice; 50 mg/kg bw/d BHPF, 3 days): -2.52
Sprr2g gene expression change, liver, Microarray (CD-1 mice; 50 mg/kg bw/d BHPF, 3 days): 2.09
Sprr2g gene expression change, ovary, Microarray (CD-1 mice; 50 mg/kg bw/d BHPF, 3 days): -5.71
Sprr2g gene expression change, uterus, Microarray (CD-1 mice; 50 mg/kg bw/d BHPF, 3 days): -2.13
chil3 gene expression change, liver, Microarray (CD-1 mice; 50 mg/kg bw/d BHPF, 3 days): -8.53
chil3 gene expression change, ovary, Microarray (CD-1 mice; 50 mg/kg bw/d BHPF, 3 days): -9.16
chil3 gene expression change, uterus, Microarray (CD-1 mice; 50 mg/kg bw/d BHPF, 3 days): -6.60
cyp2e1 gene expression change, liver, Microarray (CD-1 mice; 50 mg/kg bw/d BHPF, 3 days): -1.01
cyp2e1 gene expression change, ovary, Microarray (CD-1 mice; 50 mg/kg bw/d BHPF, 3 days): 1.25
cyp2e1 gene expression change, uterus, Microarray (CD-1 mice; 50 mg/kg bw/d BHPF, 3 days): 5.02
ll1f6 gene expression change, liver, Microarray (CD-1 mice; 50 mg/kg bw/d BHPF, 3 days): 1.95
ll1f6 gene expression change, ovary, Microarray (CD-1 mice; 50 mg/kg bw/d BHPF, 3 days): -1.11
ll1f6 gene expression change, uterus, Microarray (CD-1 mice; 50 mg/kg bw/d BHPF, 3 days): -10.96
serp1d gene expression change, liver, Microarray (CD-1 mice; 50 mg/kg bw/d BHPF, 3 days): 1.02
serp1d gene expression change, ovary, Microarray (CD-1 mice; 50 mg/kg bw/d BHPF, 3 days): 1.13
serp1d gene expression change, uterus, Microarray (CD-1 mice; 50 mg/kg bw/d BHPF, 3 days): 17.78
GAPDH gene expression change, liver, Microarray (CD-1 mice; [2]): 1.02
GAPDH gene expression change, ovary, Microarray (CD-1 mice; [2]): 1.03
GAPDH gene expression change, uterus, Microarray (CD-1 mice; [2]): -1.02
share of modified genes down-regulated (CD-1 mice; [3]): 22.3%
share of modified genes up-regulated (CD-1 mice; [3]): 77.7%
expression of sprr2a, sprr2b, sprr2f and sprr2g (response to E2 stimuli) (CD-1 mice; [4]): down-regulated
share of modified genes down-regulated (CD-1 mice; [4]): 65.5%
share of modified genes up-regulated (CD-1 mice; [4]): 34.5%
expression pattern of oestrogen-responsive genes compared with that induced by E2 (CD-1 mice; [5]): opposite expression pattern
share of modified genes down-regulated (CD-1 mice; [5]): 43.4%
share of modified genes up-regulated (CD-1 mice; [5]): 56.6%
expression of sprr2a in the uteri (Q-RT-PCR) (female CD-1 mice): decreased
serum BHPF ([1]; 100 ng l^−1 BHPF group, 10 days): no serum BHPF was detected
concentration at 10 days ([1]; serum BHPF level (mean), Bottle A group (124.35 ng l^−1 BHPF in water), after enzymatic hydrolysis): 1.21 ± 1.11 ng/mL
concentration at 10 days ([1]; serum BHPF levels, range, Bottle A group): 0.36 to 2.7 ng/mL
